Test results as given in publication PMC8067507, “Aryl Urea Based Scaffolds for Multitarget Drug Discovery in Anticancer Immunotherapies” (Pharmaceuticals, 2021).

Assays:
PD-L1 [1] = molecular target: T1, PD-L1 (Homo sapiens, UniProt Q9NZQ7); test: PD-L1 quantification by flow cytometry in A-549; type: cell-based; parameters: endogenous in cells; host or cells: A-549 cancer cells; conditions: A-549, 10 μM, 24 h, referred to control (DMSO)
Experimental: (§1) We evaluated the effect of the selected compounds on PD-L1 and on c-Myc proteins by flow cytometry after 24 h treatment at 10 μM concentration of compounds. Both, PD-L1 and c-Myc were relatively determined using DMSO treated cells as a negative control and BMS-8 as a positive one.
(§2) For the detection of total PD-L1 and c-Myc, cancer cells were seeded (3 × 10^5 cells/well) in 6-well plates and were incubated with the corresponding compounds for 24 h. Then they were collected, fixed, treated with 0.5% Triton^TM X-100 and stained with Alexa Fluor® 647 Rabbit monoclonal Anti-PD-L1 (ab215251) and FITC Rabbit monoclonal anti-c-Myc (ab223913).
(§3) We also checked results performing ELISA tests. For ELISA tests, lysates were collected, protein quantification was carried out by Bradford test and, then, PD-L1 and c-Myc were quantified using Human PD-L1 ELISA Kit 28-8 (ab214565) and c-Myc (Total) Human ELISA Kit (KHO2041), respectively, according to the manufacturer’s instructions.

[2] = tested on: HT-29 (colon adenocarcinoma); test: Cell proliferation assay (MTT); type: cell-based; conditions: Homo sapiens, HT-29, 48 h, 2 days incubation, average ± SD of three experiments
Excerpt: (§4) The ability of Ureas 13–33 to inhibit cell proliferation was established by means of their IC50 values towards the human tumor cell lines HT-29 (colon adenocarcinoma), MCF-7 (breast adenocarcinoma), HeLa (epithelioid cervix carcinoma) and A549 (pulmonary adenocarcinoma), as well as towards the endothelial cell line HMEC-1 (human microvascular endothelial cells) and the non-tumor cell line HEK-293 (human embryonic kidney cells).
(§5) HT-29, MCF-7, HeLa, A549 and HEK-293 cell lines were maintained in Dulbecco’s modified Eagle’s medium (DMEM) containing glucose (1 g/L), glutamine (2 mM), penicillin (50 μg/mL), streptomycin (50 μg/mL), and amphotericin B (1.25 μg/mL), supplemented with 10% FBS. HMEC-1 cell line was maintained in Dulbecco’s modified Eagle’s medium (DMEM)/low glucose containing glutamine (2 mM), penicillin (50 μg/mL), streptomycin (50 μg/mL), and amphotericin B (1.25 μg/mL), supplemented with 10% FBS. For the development of tube formation assays in Matrigel, HMEC-1 cells were cultured in EGM-2MV Medium supplemented with EGM-2MV SingleQuots.
(§6) In 96-well plates, 3 × 10^3 (HeLa, A549, HMEC-1, HEK-293) or 5 × 10^3 (HT-29, MCF-7) cells per well were incubated with serial dilutions of the tested compounds in a total volume of 100 μL of their respective growth media. The 3-(4,5-dimethylthiazol-2-yl)-2,5-diphenyltetrazolium bromide (MTT; Sigma Chemical Co.) dye reduction assay in 96-well microplates was used. After 2 days of incubation (37 °C, 5% CO2 in a humid atmosphere), 10 μL of MTT (5 mg/mL in phosphate-buffered saline, PBS) was added to each well, and the plate was incubated for a further 3 h (37 °C). After that, the supernatant was discarded and replaced by 100 µL of DMSO to dissolve formazan crystals. The absorbance was then read at 540 nm by spectrophotometry. For all concentrations of compound, cell viability was expressed as the percentage of the ratio between the mean absorbance of treated cells and the mean absorbance of untreated cells. Three independent experiments were performed, and the IC50 values (i.e., concentration half inhibiting cell proliferation) were graphically determined using GraphPad Prism 4 software.

[3] = tested on: HeLa (epithelioid cervix carcinoma); test: Cell proliferation assay (MTT); type: cell-based; conditions: Homo sapiens, 48 h, 2 days incubation, average ± SD of three experiments
Excerpt: as §4, §5, §6

[4] = tested on: HEK-293 (human embryonic kidney cells); test: Cell proliferation assay (MTT); type: cell-based; conditions: HEK293, 48 h, 2 days incubation, average ± SD of three experiments
Excerpt: as §4, §5, §6

[5] = tested on: A549 (pulmonary adenocarcinoma); test: Cell proliferation assay (MTT); type: cell-based; conditions: Homo sapiens, A549, 48 h, 2 days incubation, average ± SD of three experiments
Excerpt: as §4, §5, §6

[6] = tested on: MCF-7 (breast adenocarcinoma); test: Cell proliferation assay (MTT); type: cell-based; conditions: Homo sapiens, MCF7, 48 h, 2 days incubation, average ± SD of three experiments
Excerpt: as §4, §5, §6

HT-29 cells = test: Cell proliferation evaluation in co-cultures: HT-29 with Jurkat T cells; type: cell-based, human; conditions: IFN-γ stimulated HT-29 co-cultured with Jurkat T cells, 10 µM, 24 h; five experiments
Experimental: We also studied the effect of Compounds 16, 23, 26 and 33 on tumor cell proliferation in the presence of PD-1 expressing Jurkat T-cells. For this assay, first interferon γ stimulated HT-29 cells were treated for 24 h with the selected compounds at 10 µM in presence of Jurkat T cells. Then, living cells were counted using trypan blue and a Neubauer chamber and by flow cytometry.
In 12-well plates, 10^5 HT-29 cells per well were seeded and incubated for 24 h with cell culture medium supplemented with IFN-γ (10 ng/mL; human, Invitrogen®) then medium was change by one containing 4 × 10^5 Jurkat T cells per well and 10 μM of the corresponding compound or DMSO for the control. After 24 h of incubation, supernatants were collected to determine Jurkat T cell living cells and, on the other hand, HT-29 cells were collected with trypsin. Both types of suspension cells were counted with the Neubauer chamber and trypan blue and also by flow cytometry.

c-Myc [7] = test: c-Myc quantification by flow cytometry in A-549; type: cell-based, human; conditions: A-549, 10 μM, 24 h, referred to control (DMSO)
Experimental: as §1, §2, §3

PD-L1 [8] = molecular target: T1, PD-L1; test: PD-L1 quantification by flow cytometry in HT-29; type: cell-based; conditions: HT-29, 10 μM, 24 h, referred to control (DMSO)
Experimental: as §1, §2, §3

c-Myc [9] = test: c-Myc quantification by flow cytometry in HT-29; type: cell-based, human; conditions: HT-29, 10 μM, 24 h, referred to control (DMSO)
Experimental: as §1, §2, §3

[10] = tested on: all tested cell lines (HT-29, MCF-7, HeLa, A549, HMEC-1, HEK-293); parameters: method as in PMID 30878834; conditions: chlorophenyl derivatives of the previous study; read-out: IC50 values (range over cell lines); cited from earlier work
[11] = tested on: HMEC-1 (human microvascular endothelial cells); test: Cell proliferation assay (MTT); type: cell-based; conditions: HMEC-1, 48 h, 2 days incubation, average ± SD of three experiments
Excerpt: as §4, §5, §6

VEGFR-2 [12] = molecular target: T2, VEGFR-2 (Homo sapiens, UniProt P35968); test: VEGFR-2 quantification by flow cytometry in HMEC-1; type: cell-based; parameters: Both membrane and total VEGFR-2 were relatively determined using dimethyl sulfoxide (DMSO) treated cells as a negative control; endogenous in cells; host or cells: HMEC-1 (human microvascular endothelial cells); conditions: 10 µM, 24 h, relative to DMSO control
Experimental: (§7) We performed the study on both a HT-29 cancer cell line and a human microvessel endothelial cell line (HMEC-1). […] The effect of these selected derivatives on VEGFR-2, on HT-29 tumor cell line and on human microvessel endothelial cells (HMEC) was determined by flow cytometry technique. […] For these assays, cells were incubated for 24 h in the presence of the corresponding compounds at 10 µM concentration.

HMEC-1 cells = test: Tube formation inhibition assay; type: cell-based, human; conditions: HMEC-1 on Matrigel, 20 h incubation; average of three experiments
Experimental: as §5
Wells of an IBIDI μ-slide angiogenesis (IBIDI, Martinsried, Germany) were coated with 12 μL of Matrigel® (10 mg/mL, BD Biosciences) at 4 °C. After gelatinization at 37 °C for 30 min, HMEC-1 cells were seeded at 2 × 10^4 cells/well in 35 μL of culture medium on top of the Matrigel and were incubated 30 min at 37 °C while are attached. Then, compounds were added dissolved in 35 μL of culture medium and after 20 h of incubation at 37 °C, tube destruction was evaluated.

VEGFR-2 [13] = molecular target: T2, VEGFR-2; test: VEGFR-2 quantification by flow cytometry in HT-29; type: cell-based; parameters: Both membrane and total VEGFR-2 were relatively determined using dimethyl sulfoxide (DMSO) treated cells as a negative control; endogenous in cells; host or cells: HT-29 (colon adenocarcinoma) and HMEC-1 (human microvascular endothelial cells); conditions: 24 h; for Membrane VEGFR-2 (%) / Total VEGFR-2 (%): HT-29, 10 µM, relative to DMSO control
Experimental: as §7

T1 sequence (Q9NZQ7 19-290): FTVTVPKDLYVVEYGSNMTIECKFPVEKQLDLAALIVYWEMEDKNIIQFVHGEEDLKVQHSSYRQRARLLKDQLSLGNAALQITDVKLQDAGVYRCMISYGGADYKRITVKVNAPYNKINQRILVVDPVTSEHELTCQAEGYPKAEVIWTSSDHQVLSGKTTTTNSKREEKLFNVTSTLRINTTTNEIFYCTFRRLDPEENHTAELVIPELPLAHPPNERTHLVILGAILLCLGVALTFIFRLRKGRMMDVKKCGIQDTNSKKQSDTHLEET
T2 sequence (P35968 20-1356): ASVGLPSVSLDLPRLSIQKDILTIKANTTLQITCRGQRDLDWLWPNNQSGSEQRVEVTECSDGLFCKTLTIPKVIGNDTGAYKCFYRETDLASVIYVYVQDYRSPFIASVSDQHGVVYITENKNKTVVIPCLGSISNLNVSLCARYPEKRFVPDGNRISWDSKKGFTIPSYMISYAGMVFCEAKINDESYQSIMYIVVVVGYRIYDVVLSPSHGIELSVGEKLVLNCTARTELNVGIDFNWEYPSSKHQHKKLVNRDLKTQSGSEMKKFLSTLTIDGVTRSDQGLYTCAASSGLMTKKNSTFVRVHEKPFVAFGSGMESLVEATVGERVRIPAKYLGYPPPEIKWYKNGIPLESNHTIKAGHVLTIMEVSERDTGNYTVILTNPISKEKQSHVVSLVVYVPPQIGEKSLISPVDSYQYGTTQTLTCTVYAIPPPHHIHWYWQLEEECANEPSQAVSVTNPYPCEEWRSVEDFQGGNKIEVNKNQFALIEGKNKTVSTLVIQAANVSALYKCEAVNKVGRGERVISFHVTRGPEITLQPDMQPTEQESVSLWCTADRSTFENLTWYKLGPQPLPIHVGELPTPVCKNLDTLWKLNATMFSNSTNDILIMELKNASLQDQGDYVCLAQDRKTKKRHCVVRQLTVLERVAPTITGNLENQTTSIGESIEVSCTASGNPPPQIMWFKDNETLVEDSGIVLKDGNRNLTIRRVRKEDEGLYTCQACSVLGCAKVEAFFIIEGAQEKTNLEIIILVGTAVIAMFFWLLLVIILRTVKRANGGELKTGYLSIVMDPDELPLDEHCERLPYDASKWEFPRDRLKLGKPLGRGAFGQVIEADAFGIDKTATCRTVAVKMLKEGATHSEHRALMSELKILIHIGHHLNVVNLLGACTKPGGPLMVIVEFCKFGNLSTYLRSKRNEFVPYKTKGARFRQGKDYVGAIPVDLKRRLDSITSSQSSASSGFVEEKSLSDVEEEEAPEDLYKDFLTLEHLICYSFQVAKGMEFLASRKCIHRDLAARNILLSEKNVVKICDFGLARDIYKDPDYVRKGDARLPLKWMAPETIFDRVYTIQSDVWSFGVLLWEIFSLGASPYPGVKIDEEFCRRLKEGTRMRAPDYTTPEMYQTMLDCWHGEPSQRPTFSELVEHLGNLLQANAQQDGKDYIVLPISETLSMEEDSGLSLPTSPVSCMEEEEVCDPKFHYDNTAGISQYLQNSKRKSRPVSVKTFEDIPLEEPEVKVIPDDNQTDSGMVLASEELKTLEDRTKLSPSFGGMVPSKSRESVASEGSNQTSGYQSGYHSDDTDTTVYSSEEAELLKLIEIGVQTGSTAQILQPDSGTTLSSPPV

PD-L1 (%) relative expression (PD-L1 [1]) | IC50 [2] | IC50 [3] | IC50 [5] | IC50 [6] | PD-L1 (%) relative expression (PD-L1 [8]) | melting point | Membrane VEGFR-2 (%) (VEGFR-2 [12]) | Total VEGFR-2 (%) (VEGFR-2 [12]) | inhibition at 10 µM (VEGFR-2 [13]; 10 µM, statement for HT-29 and HMEC-1, read-out: inhibition of both membrane and total VEGFR-2) | Membrane VEGFR-2 (%) (VEGFR-2 [13]) | Total VEGFR-2 (%) (VEGFR-2 [13]) | SMILES | IC50 [4] | Living HT-29 cell proliferation (%) (HT-29 cells) | c-Myc (%) relative expression (c-Myc [7]) | c-Myc (%) relative expression (c-Myc [9]) | IC50 [10] | IC50 [11] | Minimum Active Conc. (inhibition of tube formation) (HMEC-1 cells)
 | 25 ± 2 µM | 30 ± 7 µM | 38 ± 6 µM | 28 ± 5 µM |  | 174 °C |  |  |  |  |  | COc1ccc(/C=C\c2cccc(NC(=O)Nc3cccc(Br)c3)c2)cc1 [Compound 15] | 23 ± 2 µM |  |  |  |  | 24 ± 4 µM | 
16 ± 6% | 0.4 ± 0.3 µM | 3.1 ± 0.1 µM | 3 ± 0.4 µM | 0.3 ± 0.2 µM | 18 ± 5% |  | 39 ± 5% | 74 ± 8% | > 50% | 36 ± 9% | 39 ± 8% | COc1ccc(/C=C/c2cccc(NC(=O)Nc3ccc(Br)cc3)c2)cc1 [Compound 23] | 0.7 ± 0.3 µM | 64% | 34 ± 4% | 49 ± 8% |  | 1.8 ± 0.3 µM | 1 µM
50 ± 3% | 0.2 ± 0.2 µM | 4 ± 1 µM | 13 ± 3 µM | 0.7 ± 0.3 µM | 33 ± 10% |  | 65 ± 9% | 83 ± 7% |  | 68 ± 9% | 95 ± 9% | COc1ccc(/C=C/c2cccc(NC(=O)Nc3ccc(OC)cc3)c2)cc1 [Compound 26] | 1.4 ± 0.6 µM | 62% | 63 ± 7% | 57 ± 9% |  | 1.9 ± 0.6 µM | 
42 ± 11% | 4.4 ± 0.8 µM | 1.4 ± 0.5 µM | 8 ± 3 µM | 1.5 ± 0.6 µM | 38 ± 13% |  | 66 ± 5% | 93 ± 8% |  | 68 ± 13% | 100 ± 10% | COc1ccc(CCc2cccc(NC(=O)Nc3ccc(OC)cc3)c2)cc1 [Compound 33] | 0.9 ± 0.07 µM | 62% | 83 ± 12% | 70 ± 10% |  | 0.9 ± 0.03 µM | 
 | 17 ± 4 µM | 6.1 ± 0.4 µM | 27 ± 2 µM | 14 ± 4 µM |  |  |  |  |  |  |  | CNC(=O)c1cc(Oc2ccc(NC(=O)Nc3ccc(Cl)c(C(F)(F)F)c3)cc2)ccn1 [Sorafenib, sorafenib, reference compound] | 5 ± 0.7 µM |  |  |  |  | 34 ± 3 µM | 10 µM

The remaining lines, values behind:

SMILES | PD-L1 (%) relative expression (PD-L1 [1]) | IC50 [2] | IC50 [3] | IC50 [5] | IC50 [6] | PD-L1 (%) relative expression (PD-L1 [8]) | melting point | Membrane VEGFR-2 (%) (VEGFR-2 [12]) | Total VEGFR-2 (%) (VEGFR-2 [12]) | inhibition at 10 µM (VEGFR-2 [13]; 10 µM, statement for HT-29 and HMEC-1, read-out: inhibition of both membrane and total VEGFR-2) | Membrane VEGFR-2 (%) (VEGFR-2 [13]) | Total VEGFR-2 (%) (VEGFR-2 [13]) | IC50 [4] | Living HT-29 cell proliferation (%) (HT-29 cells) | c-Myc (%) relative expression (c-Myc [7]) | c-Myc (%) relative expression (c-Myc [9]) | IC50 [10] | IC50 [11] | Minimum Active Conc. (inhibition of tube formation) (HMEC-1 cells)
Cc1c(COc2ccc(CN3CCCCC3C(=O)O)cc2Br)cccc1-c1ccccc1 (centres unmarked) [BMS-8, reference compound] | 68 ± 5% | 19 ± 2 µM | > 100 µM | 6 ± 1 µM | 20 ± 3 µM | 62 ± 3% |  |  |  |  |  |  | 60 ± 10 µM | 45% | 60 ± 7% | 99 ± 4% |  |  | 
COc1ccc(/C=C/c2cccc(NC(=O)Nc3cccc(Cl)c3)c2)cc1 [Compound 5] |  |  |  |  |  |  |  |  |  |  |  |  |  |  |  |  | 2 to 11 µM |  | 
COc1ccc(/C=C/c2cccc(NC(=O)Nc3ccc(Cl)cc3)c2)cc1 [Compound 6] |  |  |  |  |  |  |  |  |  |  |  |  |  |  |  |  | 0.4 to 1.8 µM |  | 
CCN(CC)CCNC(=O)c1c(C)[nH]c(/C=C2\C(=O)Nc3ccc(F)cc32)c1C [Sunitinib, sunitinib, reference compound] |  |  |  |  |  |  |  |  |  |  |  |  |  |  |  |  |  |  | 3 µM
